This is an account of results in patent US20230098254A1, “SCUTELLARIAE RADIX COMPOUNDS AND USE THEREOF FOR INHIBITING OXIDATIVE PHOSPHORYLATION PATHWAY OF MITOCHONDRIA” (priority 2020, published 2023).

For orientation: IC50 means the midpoint of a concentration-inhibition curve.

Assay type in all cases: cell-based
In one test the test system is NCI-H82 cell. Briefly: Cell viability, Promega CellTiter-Glo, NCI-H82 cell. The following applies: Homo sapiens, NCI-H82; read-out: IC50 of cell viability inhibition. The procedure: Cell viability was detected by using the Promega CellTiter-Glo kit, the kit reflected cell viability by directly measuring intracellular ATP content. […] Daoy cell and NCI-H82 cell were cultured in DMEM containing 10% FBS (plus p/s).
Background: Cellular ATP, detected with luciferase, serves as a proxy for viable cell number.

The subject of another test is U-937. Briefly: Cell viability CellTiter-Glo, U-937. Conditions: Homo sapiens; U-937, lymphoma. The procedure:
(§1) Cell viability was measured by using the Promega CellTiter-Glo kit, the kit reflected cell viability by directly measuring intracellular ATP content. Different cancer cells were cultured in culture medium, and the 50% inhibitory concentration IC50 of the compound SJ2858 was measured by Promega CellTiter-Glo kit. The name source and culture condition of each tumor cell line were as follows:
Cell line U-937 (ATCC, No. CRL-1593.2) was cultured in RPMI1640 medium containing 10% fetal bovine serum (+P/S);

Another test relates to A-375. Briefly: Cell viability CellTiter-Glo, A-375. The following applies: Homo sapiens; A-375, melanoma. On the procedure: as §1
Cell line A-375 (ATCC, No. CRL-1619) was cultured in DMEM medium containing 10% fetal bovine serum (+P/S);

The subject of the next test is SNU-398. Briefly: Cell viability CellTiter-Glo, SNU-398. The following applies: Homo sapiens; SNU-398, liver cancer. The procedure: as §1
Cell line SNU-398 (ATCC, No. CRL-2233) was cultured in RPMI1640 medium (+P/S); containing 10% fetal bovine serum (+P/S);

The test system of another test is HCC15. Briefly: Cell viability CellTiter-Glo, HCC15. The following applies: HCC15, lung cancer. On the procedure:
as §1
Cell line HCC15 (KCLB, No. 70015) was cultured in RPMI1640 medium containing 10% fetal bovine serum (+P/S);

In the next test the test system is G-401. Briefly: Cell viability CellTiter-Glo, G-401. Conditions: Homo sapiens; G-401, kidney cancer. The procedure:
as §1
Cell line G-401 (ATCC, No. CRL-1441) was cultured in McCoy's 5a medium containing 10% fetal bovine serum (+P/S);

The next test relates to OCI-LY-19. Briefly: Cell viability CellTiter-Glo, OCI-LY-19. The following applies: Homo sapiens, OCI-LY19; OCI-LY-19, lymphoma. On the procedure: as §1
Cell line OCI-LY-19 (DSMZ, code ACC-528) was cultured in 80-90% alpha-MEM medium containing 10-20% h.i. FBS (+P/S);

The test system of a further test is MDA-MB-453. Briefly: Cell viability CellTiter-Glo, MDA-MB-453. Conditions: Homo sapiens; MDA-MB-453, breast cancer. The procedure: as §1
Cell line MDA-MB-453 (ATCC, No. HTB-131) was cultured in Leibovitz's L-15 medium containing 10% fetal bovine serum (+P/S);

In the next test the test system is G-402. Briefly: Cell viability CellTiter-Glo, G-402. Conditions: Homo sapiens; G-402, kidney cancer. On the procedure: as §1
Cell line G-402 (ATCC, No. CRL-1440) was cultured in McCoy's 5a medium containing 10% fetal bovine serum (+P/S);

Another test concerns CCRF-CEM. Briefly: Cell viability CellTiter-Glo, CCRF-CEM. Conditions: Homo sapiens, leukemia. On the procedure: as §1
Cell line CCRF-CEM (ATCC, No. CCL-119) was cultured in RPMI1640 medium containing 10% fetal bovine serum (+P/S);

In another test the test system is HH. Briefly: Cell viability CellTiter-Glo, HH. The following applies: Homo sapiens, lymphoma. The procedure: as §1
Cell line HH (ATCC, No. CRL-2105) was cultured in RPMI1640 medium containing 10% fetal bovine serum (+P/S);

The next test relates to OCI-AML-3. Briefly: Cell viability CellTiter-Glo, OCI-AML-3. The following applies: Homo sapiens; OCI-AML-3, leukemia. On the procedure:
as §1
Cell line OCI-AML-3 (DSMZ, No. ACC-582) was cultured in RPMI1640 medium containing 20% fetal bovine serum (+P/S);

For a further test, the system named is OCI-AML-4. Briefly: Cell viability CellTiter-Glo, OCI-AML-4. The following applies: OCI-AML-4, leukemia. The procedure: as §1
Cell line OCI-AML-4 (DSMZ, No. ACC-729) was cultured in alpha-MEM medium containing 20% fetal bovine serum and 20% volume fraction of 5637 cell line adjusted medium (+P/S);

Another test concerns CHL-1. Briefly: Cell viability CellTiter-Glo, CHL-1. The following applies: Homo sapiens; CHL-1, melanoma. On the procedure: as §1
Cell line CHL-1 (ATCC, No. CRL-9446) was cultured in DMEM medium containing 10% fetal bovine serum (+P/S);

The next test concerns NCI-H1155. Briefly: Cell viability CellTiter-Glo, NCI-H1155. The following applies: Homo sapiens; NCI-H1155, lung cancer. On the procedure:
as §1
Cell line NCI-H1155 (ATCC, No. CRL-5818) was cultured in serum-free ACL-4 medium (+P/S);

A further test deals with GB-1. Briefly: Cell viability CellTiter-Glo, GB-1. The following applies: Homo sapiens; GB-1, brain cancer. On the procedure:
as §1
Cell line GB-1 (JCRB, No. IFO50489) was cultured in DMEM medium containing 10% fetal bovine serum (+P/S);

The next test relates to 786-O. Briefly: Cell viability CellTiter-Glo, 786-O. The following applies: Homo sapiens, 786-0, kidney cancer. On the procedure:
as §1
Cell line 786-O (ATCC, No. CRL-1932) was cultured in RPMI1640 medium containing 10% fetal bovine serum (+P/S);

The subject of another test is SF126. Briefly: Cell viability CellTiter-Glo, SF126. Conditions: Homo sapiens, SF-126; SF126, brain cancer. On the procedure:
as §1
Cell line SF126 (JCRB, No. IFO50286) was cultured in EMEM medium containing 10% fetal bovine serum (+P/S);

Another test deals with ACHN. Briefly: Cell viability CellTiter-Glo, ACHN. Conditions: Homo sapiens, kidney cancer. The procedure: as §1
Cell line ACHN (ATCC, No. CRL-1611) was cultured in EMEM medium containing 10% fetal bovine serum (+P/S);

A further test relates to WSU-DLCL2. Briefly: Cell viability CellTiter-Glo, WSU-DLCL2. The following applies: Homo sapiens, WSUDLCL2; WSU-DLCL2, lymphoma. On the procedure:
as §1
Cell line WSU-DLCL2 (DSMZ, No. ACC-575) was cultured in RPMI1640 medium containing 10% fetal bovine serum (+P/S);

The test system of a further test is SNU-449. Briefly: Cell viability CellTiter-Glo, SNU-449. Conditions: Homo sapiens; SNU-449, liver cancer. The procedure: as §1
Cell line SNU-449 (ATCC, No. CRL-2234) was cultured in RPMI1640 medium containing 10% fetal bovine serum (+P/S);

The next test deals with C3A. Briefly: Cell viability CellTiter-Glo, C3A. The following applies: Homo sapiens, liver cancer. The procedure: as §1
Cell line C3A (ATCC, No. CRL-10741) was cultured in EMEM medium containing 10% fetal bovine serum (+P/S);

For the molecule `O=c1cc(-c2ccccc2)oc2cc(O)c(O)c(O)c12` [Compound SJ2858, baicalein], the IC50 with NCI-H82 cell worked out at 15.6 µM; in the test with U-937, 39.2 µM; in the test on A-375, 10.6 µM; in the test on SNU-398, 13 µM; with HCC15, 18.9 µM; in the test with G-401 it was 12.3 µM. For the same molecule, the IC50 was 52.3 µM in the test on OCI-LY-19; 75.3 µM in the test with MDA-MB-453; 4.2 µM in the test on G-402; 14.7 µM with CCRF-CEM; 34 µM with HH; 62.3 µM in the test on OCI-AML-3. In addition, the IC50 with OCI-AML-4 worked out at 24.6 µM; in the test with CHL-1, 9.5 µM; in the test on NCI-H1155 it was 19.6 µM; in the test with GB-1, 12.4 µM; in the test on 786-O, 10.6 µM; with SF126, 14 µM. Further, the IC50 came out at 17.7 µM in the test on ACHN, 21.3 µM in the test on WSU-DLCL2, 26.9 µM in the test with SNU-449 and 27 µM with C3A.
